Measured values published in the supplement of paper PMC10331698.
± gives the standard deviation of the averaged measurements.

Columns and labels:
Assay in all cases: level (log10 ratio to DMSO vehicle control); higher = higher biomarker level / cell amount than vehicle control
Details in all cases: in DMSO
Hexafluoroglutaric acid = compound: O=C(O)C(F)(F)C(F)(F)C(F)(F)C(=O)O [Hexafluoroglutaric acid]
Description: (§1)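 BioMAP Diversity Plus panel of 12 human primary cell co-culture systems (3C, 4H, LPS, SAg, BT, BF4T, BE3C, CASM3C, HDF3CGF, KF3CT, MyoF, Mphg). Compounds were added 1 h before stimulation and left for 24 h (MyoF 48 h; BT 72 h for soluble read-outs or 6 d for IgG). Biomarkers were read by ELISA, cytotoxicity by SRB, PBMC viability and proliferation by Alamar Blue. Each well value was divided by the mean of 8 DMSO control wells on the same plate and log10 transformed; duplicate blinded samples were tested at 4 concentrations.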

[1] = compound: O=C(O)C(F)(F)C(F)(F)C(F)(F)C(F)(F)C(F)(F)C(F)(F)C(F)(F)C(F)(F)C(F)(F)C(F)(F)C(F)(F)C(F)(F)F [Perfluorotridecanoic acid]
Description: as §1

[2] = compound: O=C(O)CCC(F)(F)C(F)(F)C(F)(F)F [3:3 Fluorotelomer carboxylic acid]
Description: as §1

[3] = compound: O=P(O)(O)CCC(F)(F)C(F)(F)C(F)(F)C(F)(F)C(F)(F)C(F)(F)C(F)(F)C(F)(F)F [((Perfluorooctyl)ethyl)phosphonic acid]
Description: as §1

[4] = compound: O=S(=O)(O)C(F)(F)C(F)(F)C(F)(F)C(F)(F)C(F)(F)C(F)(F)C(F)(F)C(F)(F)F [Potassium perfluorooctanesulfonate]
Description: as §1

[5] = compound: OCC(F)(F)C(F)(F)C(F)(F)C(F)(F)C(F)(F)C(F)F [1H,1H,7H-Dodecafluoro-1-heptanol]
Description: as §1

lMphg:sIL-10
level (log10) (Hexafluoroglutaric acid; 6700 nM): -0.0745 ± 0.037 | level (log10) (Hexafluoroglutaric acid; 20000 nM): -0.0775 ± 0.056 | level (log10) (Hexafluoroglutaric acid; 60000 nM): -0.102 ± 0.0078 | level (log10) ([1]; 1500 nM): -0.044 ± 0.0057 | level (log10) ([1]; 4400 nM): -0.039 ± 0.0042 | level (log10) ([1]; 13000 nM): -0.022 ± 0.013 | level (log10) ([1]; 40000 nM): -0.044 ± 0.02 | level (log10) ([2]; 6700 nM): -0.049 ± 0.073 | level (log10) ([2]; 20000 nM): -0.035 ± 0.076 | level (log10) ([2]; 60000 nM): -0.087 ± 0.016 | level (log10) ([3]; 6700 nM): -0.0215 ± 0.012 | level (log10) ([3]; 20000 nM): -0.062 ± 0.017 | level (log10) ([3]; 60000 nM): -0.263 ± 0.025 | level (log10) ([4]; 6700 nM): 0.015 ± 0.0014 | level (log10) ([4]; 20000 nM): -0.0445 ± 0.0092 | level (log10) ([4]; 60000 nM): -0.647 ± 0.025 | level (log10) ([5]; 6700 nM): 0.0085 ± 0.11 | level (log10) ([5]; 20000 nM): -0.006 ± 0.031 | level (log10) ([5]; 60000 nM): 0.0485 ± 0.0078

3C:CD62E/E-Selectin
level (log10) (Hexafluoroglutaric acid; 6700 nM): -0.0035 ± 0.053 | level (log10) (Hexafluoroglutaric acid; 20000 nM): -0.002 ± 0.038 | level (log10) (Hexafluoroglutaric acid; 60000 nM): 0.031 ± 0.014 | level (log10) ([1]; 1500 nM): -0.0015 ± 0.019 | level (log10) ([1]; 4400 nM): -0.0045 ± 0.0064 | level (log10) ([1]; 13000 nM): -0.0005 ± 0.011 | level (log10) ([1]; 40000 nM): -0.01 ± 0.018 | level (log10) ([2]; 6700 nM): -0.006 ± 0.0042 | level (log10) ([2]; 20000 nM): 0.001 ± 0.013 | level (log10) ([2]; 60000 nM): 0.006 ± 0.0071 | level (log10) ([3]; 6700 nM): -0.011 ± 0.025 | level (log10) ([3]; 20000 nM): -0.032 ± 0.021 | level (log10) ([3]; 60000 nM): -0.056 ± 0.011 | level (log10) ([4]; 6700 nM): -0.0025 ± 0.015 | level (log10) ([4]; 20000 nM): 0.0195 ± 0.046 | level (log10) ([4]; 60000 nM): 0.063 ± 0.035 | level (log10) ([5]; 6700 nM): -0.0135 ± 0.025 | level (log10) ([5]; 20000 nM): -0.007 ± 0.0042 | level (log10) ([5]; 60000 nM): 0.0205 ± 0.025

HDF3CGF:Proliferation 72hr
level (log10) (Hexafluoroglutaric acid; 6700 nM): -0.011 ± 0.059 | level (log10) (Hexafluoroglutaric acid; 20000 nM): -0.013 ± 0.028 | level (log10) (Hexafluoroglutaric acid; 60000 nM): -0.008 ± 0.05 | level (log10) ([1]; 1500 nM): 0.0615 ± 0.07 | level (log10) ([1]; 4400 nM): -0.603 ± 0.43 | level (log10) ([1]; 13000 nM): -0.288 ± 0.069 | level (log10) ([1]; 40000 nM): -0.233 ± 0.091 | level (log10) ([2]; 6700 nM): -0.0095 ± 0.015 | level (log10) ([2]; 20000 nM): 0.0385 ± 0.0092 | level (log10) ([2]; 60000 nM): 0.021 ± 0.027 | level (log10) ([3]; 6700 nM): 0.017 ± 0.065 | level (log10) ([3]; 20000 nM): -0.0105 ± 0.087 | level (log10) ([3]; 60000 nM): -0.374 ± 0.034 | level (log10) ([4]; 6700 nM): 0.13 ± 0.079 | level (log10) ([4]; 20000 nM): 0.155 ± 0.09 | level (log10) ([4]; 60000 nM): -0.732 ± 0.039 | level (log10) ([5]; 6700 nM): 0.0045 ± 0.066 | level (log10) ([5]; 20000 nM): 0 ± 0.072 | level (log10) ([5]; 60000 nM): 0.003 ± 0.044

HDF3CGF:Collagen I
level (log10) (Hexafluoroglutaric acid; 6700 nM): -0.03 ± 0.014 | level (log10) (Hexafluoroglutaric acid; 20000 nM): -0.0385 ± 0.0078 | level (log10) (Hexafluoroglutaric acid; 60000 nM): 0.0105 ± 0.071 | level (log10) ([1]; 1500 nM): 0.0245 ± 0.1 | level (log10) ([1]; 4400 nM): -0.017 ± 0.0071 | level (log10) ([1]; 13000 nM): -0.0245 ± 0.044 | level (log10) ([1]; 40000 nM): 0.0105 ± 0.013 | level (log10) ([2]; 6700 nM): -0.029 ± 0.0042 | level (log10) ([2]; 20000 nM): -0.006 ± 0.035 | level (log10) ([2]; 60000 nM): 0.0325 ± 0.07 | level (log10) ([3]; 6700 nM): -0.041 | level (log10) ([3]; 20000 nM): -0.116 ± 0.015 | level (log10) ([3]; 60000 nM): -0.148 ± 0.1 | level (log10) ([4]; 6700 nM): 0.0215 ± 0.0064 | level (log10) ([4]; 20000 nM): -0.0125 ± 0.0092 | level (log10) ([4]; 60000 nM): -0.0295 ± 0.061 | level (log10) ([5]; 6700 nM): -0.0095 ± 0.011 | level (log10) ([5]; 20000 nM): -0.019 ± 0.027 | level (log10) ([5]; 60000 nM): 0.0025 ± 0.08

BE3C:uPA
level (log10) (Hexafluoroglutaric acid; 6700 nM): -0.01 ± 0.0085 | level (log10) (Hexafluoroglutaric acid; 20000 nM): -0.017 ± 0.0042 | level (log10) (Hexafluoroglutaric acid; 60000 nM): -0.0075 ± 0.011 | level (log10) ([1]; 1500 nM): -0.0005 ± 0.00071 | level (log10) ([1]; 4400 nM): 0.008 ± 0.0099 | level (log10) ([1]; 13000 nM): -0.01 ± 0.02 | level (log10) ([1]; 40000 nM): -0.0085 ± 0.046 | level (log10) ([2]; 6700 nM): -0.0045 ± 0.023 | level (log10) ([2]; 20000 nM): -0.018 ± 0.017 | level (log10) ([2]; 60000 nM): -0.0115 ± 0.0021 | level (log10) ([3]; 6700 nM): 0.014 ± 0.0014 | level (log10) ([3]; 20000 nM): 0.022 ± 0.0014 | level (log10) ([3]; 60000 nM): 0.023 ± 0.0014 | level (log10) ([4]; 6700 nM): 0.0125 ± 0.0092 | level (log10) ([4]; 20000 nM): -0.028 ± 0.0099 | level (log10) ([4]; 60000 nM): -0.036 ± 0.016 | level (log10) ([5]; 6700 nM): -0.0055 ± 0.032 | level (log10) ([5]; 20000 nM): -0.004 ± 0.027 | level (log10) ([5]; 60000 nM): -0.0055 ± 0.0035

3C:CCL2/MCP-1
level (log10) (Hexafluoroglutaric acid; 6700 nM): -0.0005 ± 0.0035 | level (log10) (Hexafluoroglutaric acid; 20000 nM): 0.0095 ± 0.0035 | level (log10) (Hexafluoroglutaric acid; 60000 nM): 0.028 ± 0.018 | level (log10) ([1]; 1500 nM): 0.0135 ± 0.0078 | level (log10) ([1]; 4400 nM): -0.021 ± 0.0014 | level (log10) ([1]; 13000 nM): -0.001 ± 0.0085 | level (log10) ([1]; 40000 nM): 0.0035 ± 0.0035 | level (log10) ([2]; 6700 nM): -0.011 ± 0.013 | level (log10) ([2]; 20000 nM): -0.0025 ± 0.005 | level (log10) ([2]; 60000 nM): 0.022 ± 0.037 | level (log10) ([3]; 6700 nM): 0.0005 ± 0.0092 | level (log10) ([3]; 20000 nM): -0.0115 ± 0.0078 | level (log10) ([3]; 60000 nM): -0.0085 ± 0.06 | level (log10) ([4]; 6700 nM): -0.056 ± 0.098 | level (log10) ([4]; 20000 nM): -0.0125 ± 0.0035 | level (log10) ([4]; 60000 nM): 0.009 ± 0.02 | level (log10) ([5]; 6700 nM): 0.0225 ± 0.021 | level (log10) ([5]; 20000 nM): 0.0145 ± 0.023 | level (log10) ([5]; 60000 nM): 0.0325 ± 0.012

KF3CT:CXCL9/MIG
level (log10) (Hexafluoroglutaric acid; 6700 nM): -0.007 ± 0.0014 | level (log10) (Hexafluoroglutaric acid; 20000 nM): -0.0075 ± 0.0064 | level (log10) (Hexafluoroglutaric acid; 60000 nM): -0.0065 ± 0.0021 | level (log10) ([1]; 1500 nM): -0.002 ± 0.0071 | level (log10) ([1]; 4400 nM): -0.0015 ± 0.005 | level (log10) ([1]; 13000 nM): -0.0035 ± 0.0064 | level (log10) ([1]; 40000 nM): -0.0685 ± 0.079 | level (log10) ([2]; 6700 nM): 0 ± 0.0099 | level (log10) ([2]; 20000 nM): 0.0055 ± 0.015 | level (log10) ([2]; 60000 nM): 0.005 ± 0.0028 | level (log10) ([3]; 6700 nM): -0.0095 ± 0.0078 | level (log10) ([3]; 20000 nM): 0 ± 0.0071 | level (log10) ([3]; 60000 nM): -0.0225 ± 0.0092 | level (log10) ([4]; 6700 nM): -0.0065 ± 0.0035 | level (log10) ([4]; 20000 nM): 0.003 ± 0.0042 | level (log10) ([4]; 60000 nM): 0.008 ± 0.027 | level (log10) ([5]; 6700 nM): 0.0135 ± 0.012 | level (log10) ([5]; 20000 nM): 0.0065 ± 0.0035 | level (log10) ([5]; 60000 nM): 0.0015 ± 0.018
